The target in series [1] is T1, Tyrosine-protein phosphatase non-receptor type 1 (Homo sapiens, UniProt P18031).
T1 sequence (P18031 whole entry): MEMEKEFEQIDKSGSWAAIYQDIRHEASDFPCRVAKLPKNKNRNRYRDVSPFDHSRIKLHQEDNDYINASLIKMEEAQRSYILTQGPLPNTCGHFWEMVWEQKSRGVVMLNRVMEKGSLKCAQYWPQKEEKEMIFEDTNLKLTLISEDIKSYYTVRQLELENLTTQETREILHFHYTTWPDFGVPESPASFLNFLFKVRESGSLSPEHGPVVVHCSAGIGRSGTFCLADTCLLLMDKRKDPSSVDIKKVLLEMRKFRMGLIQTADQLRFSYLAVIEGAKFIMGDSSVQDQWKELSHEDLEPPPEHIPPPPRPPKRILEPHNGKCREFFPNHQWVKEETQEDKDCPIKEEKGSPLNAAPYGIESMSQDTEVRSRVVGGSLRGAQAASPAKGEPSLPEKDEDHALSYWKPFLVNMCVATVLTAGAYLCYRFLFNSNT
Put plainly: Inhibition of recombinant PTP1B (unknown origin) expressed in Escherichia coli using pNPP as substrate measured after 30 mins.

Series [2] is described as follows: Apparent permeability of compound at 20 uM at pH 7.4 after 16 hrs by PAMPA. It is filed as physicochemical. Background: In PAMPA a lipid-coated filter parts donor from acceptor wells.
The species entered for series [3] is Homo sapiens. Nature of the series: Selectivity ratio of IC50 for recombinant TCPTP (unknown origin) to IC50 for recombinant PTP1B (unknown origin) expressed in Escherichia coli.
Series [4] has as its target T2, Tyrosine-protein phosphatase non-receptor type 11 (Homo sapiens, UniProt Q06124).
T2 sequence (Q06124 whole entry): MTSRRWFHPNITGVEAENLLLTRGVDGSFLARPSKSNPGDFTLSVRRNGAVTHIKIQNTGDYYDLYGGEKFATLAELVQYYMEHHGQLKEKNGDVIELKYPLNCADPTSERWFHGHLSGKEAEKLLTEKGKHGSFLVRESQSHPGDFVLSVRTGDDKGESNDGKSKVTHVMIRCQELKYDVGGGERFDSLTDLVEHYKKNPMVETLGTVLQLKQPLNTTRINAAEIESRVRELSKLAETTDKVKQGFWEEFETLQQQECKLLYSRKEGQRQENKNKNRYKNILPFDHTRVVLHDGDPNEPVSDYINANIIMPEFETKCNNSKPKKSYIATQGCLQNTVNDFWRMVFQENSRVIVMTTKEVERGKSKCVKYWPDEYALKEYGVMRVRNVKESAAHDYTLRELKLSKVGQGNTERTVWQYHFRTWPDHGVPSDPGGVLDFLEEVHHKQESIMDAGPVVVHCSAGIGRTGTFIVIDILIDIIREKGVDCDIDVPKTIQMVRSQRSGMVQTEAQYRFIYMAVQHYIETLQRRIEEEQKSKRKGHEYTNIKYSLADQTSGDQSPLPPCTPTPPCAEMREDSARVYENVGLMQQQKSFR
Nature of the series: Inhibition of recombinant SHP2 (unknown origin) using pNPP as substrate measured after 30 mins.

Series [5] is filed under the species Homo sapiens. Put plainly: Selectivity ratio of IC50 for recombinant SHP2 (unknown origin) to IC50 for recombinant PTP1B (unknown origin) expressed in Escherichia coli.
Series [6] concerns the target T3, Tyrosine-protein phosphatase non-receptor type 2 (Homo sapiens, UniProt P17706).
T3 sequence (P17706 whole entry): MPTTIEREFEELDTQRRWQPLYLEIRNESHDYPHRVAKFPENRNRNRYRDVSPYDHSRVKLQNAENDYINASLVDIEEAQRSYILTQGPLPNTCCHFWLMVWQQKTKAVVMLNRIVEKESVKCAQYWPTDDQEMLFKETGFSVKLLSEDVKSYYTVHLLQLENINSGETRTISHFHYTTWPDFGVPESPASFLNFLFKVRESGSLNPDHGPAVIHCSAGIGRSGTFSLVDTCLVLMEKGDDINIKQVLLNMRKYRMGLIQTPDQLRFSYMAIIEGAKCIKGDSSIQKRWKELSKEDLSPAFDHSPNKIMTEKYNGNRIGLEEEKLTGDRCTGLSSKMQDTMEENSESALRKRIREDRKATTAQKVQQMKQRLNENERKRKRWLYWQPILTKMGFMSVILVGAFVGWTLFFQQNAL
Put plainly: Inhibition of recombinant TCPTP (unknown origin) using pNPP as substrate measured after 30 mins.

Bounds are passed on as bounds.

In general, IC50 refers to the midpoint of a concentration-inhibition curve. Regarding `CCOS(=O)(=O)/C=C/c1ccc(OCc2ccc(COc3ccc(/C=C/S(=O)(=O)OCC)cc3)c(C(=O)O)c2)cc1`, the IC50 in series [1] worked out at 1300 nM.

For `CCOS(=O)(=O)/C=C/c1ccc(OCc2ccc(COc3ccc(/C=C/S(=O)(=O)OCC)cc3)c(C(=O)Nc3ccc(C(C)C)cc3)c2)cc1`, the 50% inhibitory concentration (IC50) in series [1] was found to be 1300 nM. The same measure, in the same setting: the result for `CCOS(=O)(=O)/C=C/c1ccc(OCc2cccc(COc3ccc(/C=C/S(=O)(=O)OCC)cc3)c2)cc1` reads 18400 nM.

Regarding `CCOS(=O)(=O)/C=C/c1ccc(OCCOc2ccc(/C=C/S(=O)(=O)OCC)cc2)cc1`, the concentration for half-maximal inhibition (IC50) in series [1] stood at 3000 nM. Consider `CCOS(=O)(=O)/C=C/c1ccc(OCc2ccc(COc3ccc(/C=C/S(=O)(=O)OCC)cc3)c(C(=O)Nc3ccccc3)c2)cc1`, for which, in series [1], the IC50 was determined as 1400 nM.

Consider `CCOS(=O)(=O)/C=C/c1ccc(OCCCCOc2ccc(/C=C/S(=O)(=O)OCC)cc2)cc1`, for which the IC50 in series [1] is above 100000 nM.

For orientation: Papp means the rate of passage across a membrane or cell layer, normalised by area and donor concentration. For the molecule `CCOS(=O)(=O)/C=C/c1ccc(OCc2ccc(COc3ccc(/C=C/S(=O)(=O)OCC)cc3)c(C(=O)Nc3ccc(Oc4cccc(C(F)(F)F)c4)cc3)c2)cc1`, in series [2], the apparent permeability (Papp) at 16 h, 20 µM was 6.9 ×10⁻⁶ cm/s. Further, the IC50 in series [1] was 350 nM; in series [4], 1700 nM; in series [6], 1620 nM. Moreover, the figures for the Ratio IC50 in the series filed under Homo sapiens [3] and in the series filed under Homo sapiens [5] were 5 to 9 and 5 to 6, respectively. Regarding `CCOS(=O)(=O)/C=C/c1ccc(OCc2ccc(COc3ccc(/C=C/S(=O)(=O)OCC)cc3)c(C(=O)Nc3ccc(Oc4ccc(C(F)(F)F)cc4)cc3)c2)cc1`, in series [1], the concentration for half-maximal inhibition (IC50) was determined as 820 nM. Turning to `CCOS(=O)(=O)/C=C/c1ccc(OC2CCC(Oc3ccc(/C=C/S(=O)(=O)OCC)cc3)CC2)cc1` (stereo not given), the IC50 in series [1] was determined as 29200 nM.

Consider `CCOS(=O)(=O)/C=C/c1ccc(OCOc2ccc(/C=C/S(=O)(=O)OCC)cc2)cc1`, for which the concentration for half-maximal inhibition (IC50) in series [1] was 8700 nM.

Take `CCOS(=O)(=O)/C=C/c1ccc(Oc2ccc(/C=C/S(=O)(=O)OCC)cc2)cc1`: in series [1], the half-inhibitory concentration (IC50) was 11800 nM. Still for that read-out and setting: the result for `CCOS(=O)(=O)/C=C/c1ccc(OCc2ccc(COc3ccc(/C=C/S(=O)(=O)OCC)cc3)c(C(=O)Nc3ccc(Oc4ccc(F)cc4)cc3)c2)cc1` reads 1300 nM.

In the case of `CCOS(=O)(=O)/C=C/c1ccc(OCc2ccc(COc3ccc(/C=C/S(=O)(=O)OCC)cc3)c(C(=O)Nc3ccc(OC)cc3)c2)cc1`, in series [1], the IC50 was found to be 2600 nM.

In the case of `CC(C)NCC(O)COc1cccc2ccccc12` (stereo not given) [PROPRANOLOL], in series [2], the Papp at 16 h, 20 µM is 18.7 ×10⁻⁶ cm/s. With `CCOS(=O)(=O)/C=C/c1ccc(OCc2ccc(COc3ccc(/C=C/S(=O)(=O)OCC)cc3)c(C(=O)Nc3ccc(Oc4cccc(-c5ccccc5)c4)cc3)c2)cc1`, in series [1], the IC50 is 1100 nM. On to `CCOS(=O)(=O)/C=C/c1ccc(OCc2ccc(COc3ccc(/C=C/S(=O)(=O)OCC)cc3)c(C(=O)Nc3ccc(Oc4ccc(Cl)cc4)cc3)c2)cc1`, for which, in series [2], the apparent permeability coefficient (Papp) at 16 h, 20 µM turned out to be 9.1 ×10⁻⁶ cm/s. In addition, the concentration for half-maximal inhibition (IC50) in series [1] was 400 nM; in series [4], 940 nM; in series [6], 2970 nM. The Ratio IC50 in the series listed under Homo sapiens [3] fell in the range of 5 to 9. Take `CCOS(=O)(=O)/C=C/c1ccc(OCc2ccc(COc3ccc(/C=C/S(=O)(=O)OCC)cc3)c(C(=O)Nc3ccc(Oc4ccccc4F)cc3)c2)cc1`: in series [1], the IC50 came out at 850 nM. Regarding `CCOS(=O)(=O)/C=C/c1ccc(OCc2ccc(COc3ccc(/C=C/S(=O)(=O)OCC)cc3)c(C(=O)Nc3ccc(Oc4ccc(C(C)C)cc4)cc3)c2)cc1`, the IC50 in series [1] came to 750 nM. In the case of `CCOS(=O)(=O)/C=C/c1ccc(OCc2ccc(COc3ccc(/C=C/S(=O)(=O)OCC)cc3)c(C(=O)Nc3ccc(Oc4ccc5ccccc5c4)cc3)c2)cc1`, the IC50 in series [1] turned out to be 790 nM. Still for that read-out and setting: the result for `CCOS(=O)(=O)/C=C/c1ccc(OCCCOc2ccc(/C=C/S(=O)(=O)OCC)cc2)cc1` reads 37300 nM; that for `CCOS(=O)(=O)/C=C/c1ccc(OCc2ccc(COc3ccc(/C=C/S(=O)(=O)OCC)cc3)c(C(=O)Nc3ccc(F)cc3)c2)cc1`, 1100 nM.

Consider `CCOS(=O)(=O)/C=C/c1ccc(OCc2ccc(COc3ccc(/C=C/S(=O)(=O)OCC)cc3)c(C(=O)Nc3ccc(Oc4ccc(Br)cc4Cl)cc3)c2)cc1`, for which the Papp at 16 h, 20 µM in series [2] is 12.6 ×10⁻⁶ cm/s. In addition, the results for the IC50 in series [1], in series [4] and in series [6] were 160 nM, 1050 nM and 1430 nM, respectively. The Ratio IC50 in the series listed under Homo sapiens [3] is 5 to 9; in the series filed under Homo sapiens [5], 5 to 6. Turning to `CCOS(=O)(=O)/C=C/c1ccc(OCc2ccc(COc3ccc(/C=C/S(=O)(=O)OCC)cc3)c(C(=O)OC)c2)cc1`, the half-inhibitory concentration (IC50) in series [1] came out at 3400 nM. Same read-out and setting: the result for `CCOS(=O)(=O)/C=C/c1ccc(OCc2ccc(COc3ccc(/C=C/S(=O)(=O)OCC)cc3)c(C(=O)Nc3ccc(Oc4ccccc4C(F)(F)F)cc3)c2)cc1` reads 870 nM. Consider `CCOS(=O)(=O)/C=C/c1ccc(OCc2ccc(COc3ccc(/C=C/S(=O)(=O)OCC)cc3)c(C(=O)Nc3ccc(Oc4ccc(CC)cc4)cc3)c2)cc1`, for which, in series [2], the Papp at 16 h, 20 µM is 8.5 ×10⁻⁶ cm/s. The half-maximal inhibitory concentration (IC50) came to 190 nM in series [1], 1100 nM in series [4] and 1320 nM in series [6]. The values for the Ratio IC50 in the series filed under Homo sapiens [3] and in the series listed under Homo sapiens [5] were 5 to 9 and 5 to 6, respectively. Consider `CCOS(=O)(=O)/C=C/c1ccc(OCc2ccc(COc3ccc(/C=C/S(=O)(=O)OCC)cc3)c(C(=O)Nc3ccc(Oc4ccc(C(C)(C)C)cc4)cc3)c2)cc1`, for which the IC50 in series [1] was determined as 910 nM.

Turning to `CCOS(=O)(=O)/C=C/c1ccc(OCc2ccc(COc3ccc(/C=C/S(=O)(=O)OCC)cc3)c(C(=O)Nc3ccc(Oc4ccc(-c5ccccc5)cc4)cc3)c2)cc1`, the Papp at 16 h, 20 µM in series [2] is 9.7 ×10⁻⁶ cm/s. The IC50 in series [1] is 140 nM; in series [4], 920 nM; in series [6], 1290 nM. Further, the Ratio IC50 was 5 to 9 in the series filed under Homo sapiens [3] and 5 to 6 in the series listed under Homo sapiens [5].

As for `CCOS(=O)(=O)/C=C/c1ccc(OCc2ccc(COc3ccc(/C=C/S(=O)(=O)OCC)cc3)cc2)cc1`, the half-inhibitory concentration (IC50) in series [1] is 1200 nM; in series [4], 4700 nM; in series [6] it was 3390 nM. For `CCOS(=O)(=O)/C=C/c1ccc(OCc2ccc(COc3ccc(/C=C/S(=O)(=O)OCC)cc3)c(C(=O)Nc3ccc(Oc4ccccc4)cc3)c2)cc1`, the IC50 in series [1] came to 860 nM.

The values are drawn from ChEMBL document CHEMBL4038289, “Y-shaped bis-arylethenesulfonic acid esters: Potential potent and membrane permeable protein tyrosine phosphatase 1B inhibitors” (Bioorg Med Chem Lett, 2017).
